Data on 15 compounds can be found in patent US9622469B2, “Crosslink breakers for preservation of biological substances” (priority 2013, dated 2017).

Marks after values point to notes of the source that are not given here.

The nature of data set [1]: Cleavage of PPD (3) to benzoic acid by NHC precursors, Method B (MeCN co-solvent). It counts as biochemical. The conditions noted are these: for Yield (%) of benzoic acid from cleavage of 3: MeCN/pH 7.4 phosphate buffer, 37° C., LCMS peak integration with respect to 3, background 5%; for Benzoic acid formation from 3 (in words): Method B screen of NHC precursors. The procedure: (§1) Dicarbonyl cleavage reactions were performed using either the method described in Vasan et al., An agent cleaving glucose-derived protein crosslinks in vitro and in vivo, Nature (1996) Vol. 382, pp. 275-278 (Method A) or a modified method with MeCN as a co-solvent (Method B).
(§2) 60 mM solution of dicarbonyl substrate (45 μmol) in MeCN (0.75 ml) was added to 20 mM solution of NHC (15 μmol) in 0.15 M pH 7.4 sodium phosphate buffer (0.75 ml) and kept stirred at 37° C. At stated times, 75 μl aliquots were taken, diluted with 50% MeCN/H2O (425 μl) and analyzed by LCMS with 2,4-dihydroxyquinoline (248 μM) as an internal standard. The cleavage products were quantified by peak integration against the calibration curves.
Thus, our first goal in these studies was to assess the ability of various NHC precursors to induce the degradation of the dicarbonyl model substrate (PPD, 3). To this end, we screened the thiazolium (4-6), benzothiazolium (7), triazolium (8,9) and imidazolium (10) halide substructures shown in Table 1.

The test system of another data set is mouse RBC. The experiment in a line: Storage of leukoreduced mouse blood in CPDA-1 at 4° C.: hemolysis and intact RBC count. The conditions noted are these: CPDA-1 buffer. In kind it is cell-based. As to the method: FIG. 1 illustrates OCR6043-mediated prolonging of the integrity of stored RBCs. Leuko reduced mouse blood was stored under FDA-approved storage conditions (CPDA-1 buffer at 4° C.) for up to 13 days, in either OCR6043, control compound (structurally similar to OCR6043, but nonfunctional as a AGE crosslink breaker), or without any additive.
This solution was stored at 4° C. according to FDA-approved conditions for 13 days. […] The steps to collect HOD blood from mice and the addition of the FDA-approved storage buffer CPDA are described in Hendrickson et al., Transfusion of fresh murine red blood cells reverses adverse effects of older stored red blood cells, Transfusion (2011) Vol. 12, pp. 2695-2702.
We also counted the intact RBCs using a hemocytometer after 13 days of storage as also depicted in FIG. 1.

For data set [2] the following is noted: physiological conditions; cited from earlier work.
Data set [3] in a line: Cleavage of PPD by NHC precursors, Method A (alcoholic co-solvent). In kind it is biochemical. The conditions noted are these: for Combined % Yield (PhCO2H, PhCO2Me): co-solvent MeOH. The procedure: as §1
PPD (21 μl, 156 μmol) was added to a murky solution of NHC (2 or 4, 71 μmol) in 50% MeOH/0.5 M pH 7.4 sodium phosphate buffer (3.5 ml/3.5 ml; final conc. 10 mM NHC, 22 mM PPD) and kept stirred at 37° C. Approximately 0.5 ml aliquots were taken at stated times and analyzed by HPLC. Experiments using EtOH or iPrOH as a co-solvent were done in the same manner. Concentrations of benzoic acid and benzoate esters were determined by peak integration against the calibration curves.
Having learned that ALT-711 performed best among NHCs evaluated for PPD cleavage, we sought to test its substrate scope versus its N-benzyl counterpart (4). We therefore measured product distribution and yield while varying the co-solvent used to solubilize dicarbonyl substrates. As summarized in Table 2, we first investigated the performance of alcoholic co-solvents in PPD cleavage reactions. […] Despite this, however, the product distributions differed substantially: ALT-711 (2) predominantly afforded benzoic acid (PhCO2H:PhCO2Me=3.2:1, Entry 2), whereas 4 mostly gave rise to methyl benzoate (PhCO2H:PhCO2Me=1:2.2, Entry 4). Further replacement of the co-solvent with EtOH and i-PrOH in 4-catalyzed reactions led to a decrease in the proportion of ester production, still without altering overall yield (Entries 5 and 6).

The subject of data set [4] is HOD alloantigen on stored RBCs. Nature of the data set: Immunogenicity of stored blood upon transfusion (anti-HOD IgG ELISA). In kind it is in vivo, mouse. The conditions noted are these: blood stored 14 days, transfused into B6 mice, 14 days following transfusion. As to the method: Leuko-reduced mouse blood was stored under typical storage conditions for up to 14 days, in either OCR6043, control compound, or without any treatment. FIG. 2A illustrates an analysis of glucose in the serum from the stored blood was evaluated using a glucose oxidase enzymatic assay. […] FIG. 2B illustrates the AGE precursor levels on RBCs were measured using a dicarbonyl-specific fluorophore that was developed in-house. The time dependent increase in the AGE precursor levels was dampened in the presence of OCR6043. FIG. 2C illustrates mouse blood that was stored for 14 days, was evaluated for its immunogenicity upon transfusion, by testing for IgGs against an alloantigen on the RBCs (HOD=HEL-OVA-Duffy).
OCR6043 treatment decreases immunogenicity, and enhances post-transfusion recovery of stored mouse blood. Leukoreduced mouse blood was stored under typical storage conditions for up to 14 days in either OCR6043 or without any treatment. This mouse blood was evaluated for its immunogenicity upon transfusion by testing for IgGs against an alloantigen on the RBCs (HOD=HEL-OVA-Duffy).
As described herein, the stored blood has an HOD marker allowing facile detection after transfusion. We transfused […] of stored blood into B6 mice (not expressing the HOD antigen). […] The anti-HOD IgG response was evaluated using standard ELISA techniques described in Hendrickson et at.
On the technique in general: ELISA stands for enzyme-linked immunosorbent assay.

Data set [5] in a line: NHC-mediated reaction with α-keto aldehyde phenylglyoxal (16), Method B. It counts as biochemical. The conditions noted are these: LCMS, phenylglyoxal alone gives 25% benzoic acid. The procedure: as §2
Phenylglyoxal hydrate (16; 114 mg, 0.75 mmol, 2 eq) was added to a solution of ALT-711 (2; 100 mg, 0.37 mmol) in 50% MeCN/0.15 M pH 7.4 phosphate buffer (total vol. 37 ml) and kept stirred at room temperature for 15 mins. The reaction mixture was cooled to −20° C. to precipitate out sodium phosphate as white crystals. The supernatant was transferred, and the residue was washed with MeCN and combined with the supernatant. This yellow clear solution was concentrated at room temperature to remove MeCN and purified by HPLC (16-27MeCN over 31 min). […]
Reactions involving α-keto aldehyde derivatives 16 and 17 followed an unexpected course. Treatment of these substrates with 2 led to instantaneous, high-yield production of a diastercomeric mixture of cycloadducts (19 and 20) that decompose to complex mixtures under the reaction conditions with half-lives of approximately 3 h Structures were determined based on in-depth NMR analysis (see Supplementary Material).

Data set [6] is described as follows: NHC-mediated cleavage of bis-alkyl diketone 14, Method B. It counts as biochemical. The conditions noted are these: LCMS, with respect to dicarbonyl. As to the method:
as §2
(§3) Our efforts to investigate the scope of thiazolium salt-mediated reactions with dicarbonyls began with bis-alkyl diketone 14 (Table 3, Entry 1). This substrate is cleaved cleanly by 2, and affords acid 18 in 82% yield. NHC precursor 4, on the other hand, provides 18 in only 14% yield (Entry 2). The efficiency of dicarbonyl cleavage reactions decreases substantially in the case of benzil (15, Entry 3), which affords benzoic acid in 14% and 1% yield following exposure to 2 and 4, respectively.

Data set [7] in a line: NHC-mediated cleavage of benzil (15), Method B. In kind it is biochemical. The conditions noted are these: LCMS, with respect to dicarbonyl. As to the method: as §2, §3

In the case of `Cc1sc[n+](Cc2ccccc2)c1C`, the “Yield (%) of benzoic acid from cleavage of 3” value in data set [1] (Method B) is given as 20%. Consider `O=C(C[n+]1ccsc1)c1ccccc1.[Br-]` [Compound 1, N-phenacylthiazolium bromide], for which the “RBC viability / intact RBCs (hemocytometer)” value with mouse RBC (13 days) is “higher levels of intact RBCs”. In data set [2], the Half-life of decomposition is 44 min. Moreover, the “Combined % Yield (PhCO2H, PhCO2Me)” value in data set [3] came out at 39%. The “Immunogenicity upon transfusion (IgG against HOD alloantigen)” value in data set [4] is reported as “lower immunogenicity”. In the case of `Cc1sc[n+](Cc2ccccc2)c1C.[Cl-]` [Compound 4, 3-benzyl-4,5-dimethylthiazol-3-ium chloride], the “% Yield of PhCO2H from substrate 16” value in data set [5] is listed as 30^c %. In addition, the “% Yield of acid 18 from substrate 14” value in data set [6] came to 14%. Also, the “Combined % Yield (PhCO2H, PhCO2Et)” value in data set [3] (co-solvent EtOH) is 60%. In addition, the “Combined % Yield (PhCO2H, PhCO2Me)” value in data set [3] amounted to 62%. Moreover, the “Combined % Yield (PhCO2H, PhCO2iPr)” value in data set [3] (co-solvent i-PrOH) was 58%. Moreover, in data set [7], the “% Yield of PhCO2H from substrate 15 (benzil)” value worked out at 1%. The “Benzoic acid formation from 3 (in words)” value in data set [1] was “substantially lower yields”. Besides, the “Combined % Yield (PhCO2H)” value in data set [1] (co-solvent MeCN, Method B, LCMS, with respect to dicarbonyl) is on record as 20%. Take `Cc1c(CCO)sc[n+]1Cc1ccccc1.[Cl-]` [Compound 5]: the “Benzoic acid formation from 3 (in words)” value in data set [1] is reported as “substantially lower yields”. Same read-out and setting: to `[Cl-].c1ccc(C[n+]2csc3ccccc32)cc1` [Compound 7] belongs “no observable levels of benzoic acid”; to `Cn1c[n+](Cc2ccccc2)cn1.[Cl-]` [Compound 8], “no observable levels of benzoic acid”. The same measure, in the same setting: to `Cn1c[n+](CC(=O)c2ccccc2)cn1.[Cl-]` [Compound 9] belongs “restores the reactivity to a small extent”.

Turning to `Cn1cc[n+](CC(=O)c2ccccc2)c1.[Cl-]` [Compound 10], the “Benzoic acid formation from 3 (in words)” value in data set [1] is given as “did not produce any benzoic acid”. In the case of `Cn1c[n+](CC(=O)c2ccccc2)cn1.[Cl-]` [MPTC, 1-methyl-4-phenacyl-triazolium chloride], the “Hemolysis of stored blood (supernatant appearance)” value in the data set on mouse RBC (up to 13 days, 12 mM) is reported as “hemolysis”.

Turning to `Cc1sc[n+](CC(=O)c2ccccc2)c1C.[Cl-]` [drawing 8], the “Yield (%) of benzoic acid from cleavage of 3” value in data set [1] (Method B) is reported as 60%. Still for that read-out and setting: with `Cc1c(CCO)sc[n+]1Cc1ccccc1.[Cl-]` [drawing 10] the figure was 14%; with `[Cl-].c1ccc(C[n+]2csc3ccccc32)cc1` [drawing 12], 0^b %; with `Cn1c[n+](Cc2ccccc2)cn1.[Cl-]` [drawing 13], 0^b %. Same read-out and setting: to `Cn1c[n+](CC(=O)c2ccccc2)cn1.[Cl-]` [drawing 14] belongs 12%; to `Cn1cc[n+](CC(=O)c2ccccc2)c1.[Cl-]` [drawing 15], 0^b %.
